The target in data set [1] is RXRα LBD (Homo sapiens, UniProt P19793). In words: 19F NMR binding assay. The settings on record: 100 μM compound, 10 μM RXRα LBD.
The subject of data set [2] is AKT. In words: Retinoic acid-induced AKT activation by immunoblotting. Type of data set: cell-based. The settings on record: 50 μM each, Caco-2 and MEF cells.
Protocol: MEF and Caco-2 cells were starved overnight and pretreated with Sulindac for 30 min before exposure to all-trans-retinoic acid (ATRA) (10^−7 M) for 30 min and analyzed for AKT activation (FIG. 12B).
Caco-2 and MEF cells were treated with the indicated concentration of Sulindac or K-80003 for 30 min, then stimulated with all-trans-RA (10^−7 M) for 15 min. AKT activation was analyzed by immunoblotting.
For immunoblotting, cell lysates were boiled in SDS sample buffer, resolved by SDS-polyacrylamide gel electrophoresis, and transferred to nitrocellulose. After transfer, the membranes were blocked in 5% milk in TBST (10 mM Tris-HCl, pH. 8.0, 150 mM NaCl, 0.05% Tween 20) containing antibody. The membranes were then washed three times with TBST, then incubated for 1 hr at room temperature in 5% milk in TBST containing horseradish peroxide-linked anti-immunoglobulin.
The subject of data set [3] is prostaglandin E2 (PGE2) production. In words: PGE2 production in A549 cells. Type of data set: cell-based, human. The procedure:
A549 cells were seeded in 24-well plates in DMEM with 10% fetal bovine serum. After overnight culture, cells were stimulated with 10 ng/ml IL-1β in DMEM medium without serum for 24 hr. After 10 min pretreatment with the indicated concentrations of Sulindac or analog, cells were co-treated with 10 μM arachidonic acid and Sulindac or its analog for 30 min at 37° C. Medium was collected and immediately assayed. PGE2 production was measured with Prostaglandin E2 EIA Kit-Monoclonal according to the manufacturer's instructions (Cayman Chemical, Ann Arbor, Mich.). PGE2 production (%) is expressed as the ratio of PGE2 produced in the presence of compound to that with vehicle alone.

In data set [4] the test system is ZR-75-1 cells. Put plainly: PARP cleavage with TNFα by immunoblotting. Format: cell-based, human. The settings on record: K-80003 50 μM, Sulindac 75 μM, 6 hr. The procedure: ZR-75-1 cells were treated with TNFα and/or Sulindac (75 μM) or K-80003 (50 μM) for 6 hr and analyzed by immunoblotting.
The test system of data set [5] is RXRα/Δ80 tumor. In words: RXRα/Δ80 tumor growth in animals. Type of data set: in vivo. The settings on record: mice, 60 mg/kg intraperitoneally, two weeks. The procedure:
Mice (n=6) were treated intraperitoneally with corn oil, Sulindac (60 mg/kg), or K-80003 (60 mg/kg) for two weeks. Tumors were removed and measured. […] Together, the RXRα-selective Sulindac analog K-80003 is a potent inhibitor of RXRα-mediated PI3K/AKT signaling and cancer cell growth.

Data set [6] concerns MCF-7 breast tumor. In words: MCF-7 breast tumor growth, oral administration. Format: in vivo. The settings on record: mice, 15, 30, 60 mg/kg by gavage once daily, 20 days. As to the method: The growth inhibitory effect of oral administration of K-80003 on MCF-7 breast tumor tissue grown in mice was investigated. K-80003 was dissolved in NaHCO3 (pH 8.0). Mice with MCF-7 breast tumor tissue were administered 15 mg/kg K-80003, 30 mg/kg K-80003, 60 mg/kg K-80003, or a control in 100 ul total volume by gavage once daily.

Data set [7] can be described thus: Preclinical toxicity study. Format: in vivo. The procedure: Preclinical studies of K-80003 were performed, including the investigation of toxicity, bioavailability, and pharmacokinetics.
Data set [8] has as its target T1, RXRα/TRα heterodimers (Homo sapiens, UniProt P19793).
T1 construct: expressed in transfected cells; host or cells: CV-1 green monkey kidney cells
Put plainly: TREpal2-tk-CAT reporter assay in CV-1 cells. Type of data set: cell-based. The settings on record: T3 10^−7 M. As to the method: Receptor expression vectors and a reporter gene (TREpal2-tk-CAT for RXRα/TRα heterodimers (FIG. 9C), and DR1 tk-CAT for RXRα/PPARγ heterodimer (FIG. 9B)) were transiently transfected into CV-1 cells. Cells were treated with or without ligands (ciglitazone, 10^−6 M; T3, 10^−7 M) in the presence or absence of Sulindac. CAT activity was determined.
(§1) Cells (1×10^5 cells/well) seeded in 24-well plates were transiently transfected using a modified calcium phosphate precipitation procedure as described (Kolluri, S. K. et al., Proc Natl Acad Sci USA 102 (7), 2525-2530 (2005); Cao, X., et al., Mol Cell Biol 24(22), 9705-9725 (2004)).
A general note: A reporter such as luciferase makes a cellular process visible.

Data set [9] deals with T2, RXRα homodimer and heterodimer (Homo sapiens, UniProt P19793).
T2 construct: expressed in transfected cells; host or cells: CV-1 green monkey kidney cells
T2 sequence (P19793 whole entry, one chain of several): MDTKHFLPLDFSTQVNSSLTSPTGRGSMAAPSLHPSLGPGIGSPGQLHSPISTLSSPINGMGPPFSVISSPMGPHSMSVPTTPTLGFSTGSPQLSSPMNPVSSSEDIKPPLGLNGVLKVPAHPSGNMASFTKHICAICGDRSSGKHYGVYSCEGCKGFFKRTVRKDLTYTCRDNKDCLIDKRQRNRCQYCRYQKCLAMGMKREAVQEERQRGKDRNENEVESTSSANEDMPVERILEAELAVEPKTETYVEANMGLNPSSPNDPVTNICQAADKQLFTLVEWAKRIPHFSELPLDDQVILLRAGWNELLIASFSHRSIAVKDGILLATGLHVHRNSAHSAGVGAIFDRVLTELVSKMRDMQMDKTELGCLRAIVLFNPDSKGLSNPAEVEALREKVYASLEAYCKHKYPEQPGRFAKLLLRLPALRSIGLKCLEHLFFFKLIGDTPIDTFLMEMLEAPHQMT
In words: (TREpal)2-tk-CAT and βRARE-tk-CAT reporter assays in CV-1 cells. Format: cell-based. The settings on record: SR11237 10^−6 M. As to the method: Nur77 and/or RXRα were transiently transfected into CV-1 cells. Cells were treated with or without SR11237 (10^−6 M), a RXR-selective agonist, in the presence or absence of Sulindac. (TREpal)2-tk-CAT (Zhang et al., Nature 358, 587-591 (1992a)) (FIG. 1E) and βRARE-tk-CAT (Zhang et al., Nature 355, 441-446 (1992b)) (FIG. 1F) CAT activity were determined.
as §1

Data set [10] relates to interaction of p85α with tRXRα and/or RXRα. In words: Co-immunoprecipitation with ΔN197 anti-RXRα antibody. The settings on record: TNFα-enhanced. Type of data set: cell-based. As to the method:
RXRα interaction with p85α was examined. Anti-RXRα […]antibodies (Santa Cruz Biotechnology, Santa Cruz, Calif.) were used in co-immunoprecipitation (Co-IP) and Western blotting (WB) assays. BHK cells were treated with ATRA (10^−7 M) for 30 min. Lysates were prepared and analyzed for RXRα-p85α interaction using either D20 anti-RXRα or ΔN197 anti-RXRα antibody (FIG. 12D).
For the CoIP assay, cells or cells transfected with indicated expression vectors were suspended in lysis buffer (50 mM Tris-HCl, pH 7.4; 150 mM NaCl; 20 mM EDTA; 1% NP-40; 1 mM PMSF; […] Leupeptin; […] Aprotinin; 0.1 mM Na3VO4; and 1 mM DTT). Cell extracts were cleared by incubation with the Protein A/G plus Agarose beads (Santa Cruz Biotechnology, Santa Cruz, Calif.) and then incubated with appropriate antibody and […] of Protein A or G plus Agarose beads overnight at 4° C. Beads were then washed and boiled in Laemmli gel-loading solution before performing SDS-PAGE/immunoblotting using polyclonal or monoclonal antibodies. Immunoreactive products were detected by chemiluminescence with an enhanced chemiluminescence system (ECL™) (Amersham Biosciences, Amersham, UK).

Data set [11] has as its system HepG2 cells. Put plainly: Caspase-8 activation by anti-cleaved caspase-8 immunostaining. Format: cell-based. The settings on record: TNFα and Sulindac. The procedure: PC3 cells transfected with CA-AKT or DN-AKT were treated with TNFα and/or Sulindac, and analyzed by immunoblotting (FIG. 6F). Activation of caspase-8 (FIG. 6G) and Bax (FIG. 6H) by Sulindac and TNFα. HepG2 cells transfected with CA-AKT were treated with TNFα and Sulindac, and immunostained with anti-cleaved caspase-8 or Bax/6A7 antibody. […] Sulindac/TNFα-induced PARP cleavage was inhibited by transfection of constitutive-active AKT (CA-AKT) but enhanced by transfection of dominant-negative AKT (DN-AKT) (FIG. 6F). Consistently, induction of apoptosis (FIG. 17B) and activation of caspase-8 (FIG. 6G) and Bax (FIG. 6H) by Sulindac/TNFα combination was inhibited by CA-AKT.

The test system of data set [12] is COX. The settings on record: Haanen, 2001; cited from earlier work.

“Also recorded” adds a separate entry of the source.

T1 sequence (P19793 whole entry): as the sequence (P19793 whole entry, one chain of several) above
T1 sequence (P10827 1-410 isoform P10827-2 partner): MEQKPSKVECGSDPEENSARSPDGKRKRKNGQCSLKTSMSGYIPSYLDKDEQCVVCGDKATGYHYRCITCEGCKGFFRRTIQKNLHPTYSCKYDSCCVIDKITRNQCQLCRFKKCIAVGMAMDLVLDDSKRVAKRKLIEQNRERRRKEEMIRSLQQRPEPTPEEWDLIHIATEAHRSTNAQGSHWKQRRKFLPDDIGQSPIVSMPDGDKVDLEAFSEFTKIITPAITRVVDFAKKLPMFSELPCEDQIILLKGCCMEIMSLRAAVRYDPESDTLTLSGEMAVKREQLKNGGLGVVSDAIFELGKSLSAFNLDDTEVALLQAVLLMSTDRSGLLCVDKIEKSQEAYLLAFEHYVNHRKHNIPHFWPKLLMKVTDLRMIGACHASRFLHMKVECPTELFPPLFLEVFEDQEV
RXRα LBD, sequence (P19793 227-458 limits assumed): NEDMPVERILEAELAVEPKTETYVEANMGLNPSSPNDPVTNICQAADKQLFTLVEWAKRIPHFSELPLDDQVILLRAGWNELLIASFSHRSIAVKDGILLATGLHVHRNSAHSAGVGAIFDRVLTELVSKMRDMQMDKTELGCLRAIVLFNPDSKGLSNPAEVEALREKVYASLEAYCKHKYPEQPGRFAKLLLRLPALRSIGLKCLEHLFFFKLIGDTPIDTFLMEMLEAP

For `CC1=C(CC(=O)O)c2cc(F)ccc2/C1=C\c1ccc(C(C)C)cc1` [K-80003, (Z)-2-(3-(4-Iso-propylbenzylidene)-6-fluoro-2-methyl-3H-inden-1-yl)acetic acid], the “binding to RXRα by 19F NMR” value in data set [1] is given as “confirmed”. Further, in data set [2], the “inhibition of ATRA-induced AKT activation, compared with Sulindac” value is listed as “much more effective than Sulindac”. For the same compound, the “inhibition of constitutive and TNFα- or IL-1β-induced PGE2 production” value in [3] is reported as “failed to inhibit; also recorded: did not inhibit”. Besides, the “induction of PARP cleavage together with TNFα, compared with Sulindac” value in data set [4] is recorded as “more effective than Sulindac”. For the same compound, the “inhibition of RXRα/Δ80 tumor growth, compared with Sulindac” value in data set [5] is on record as “much more potent inhibitory effect than Sulindac”. Further, the “tumor volume compared to control” value in data set [6] was “dose-dependent decrease in tumor volume”. Moreover, the toxicity result in data set [7] is “very low toxicity”.
With `CSc1ccc(/C=C2/C(C)=C(CC(=O)O)c3cc(F)ccc32)cc1` [Sulindac, (Z)-2-(3-(4-(Methylthio)benzylidene)-6-fluoro-2-methyl-3H-inden-1-yl)acetic acid], the “transactivation of RXR/TR heterodimers (CAT activity)” value in data set [8] is “not RXR/TR heterodimers”. For the same compound, the “RXRα homodimer and heterodimer transactivation (CAT activity)” value in [9] was “inhibited RXRα homodimer and heterodimer transactivation”. Besides, the “interaction of p85α with tRXRα and/or RXRα” value in data set [10] is on record as “inhibited”. In data set [11], the “cells showing caspase-8 staining, CA-AKT-transfected” value came to 15% and the “cells showing caspase-8 staining, nontransfected” value was “About 80%”. The COX-inhibiting activity entry in data set [12] is recorded as “potent COX inhibitor”.

Source of the values: patent US10087156B2, “Methods and compositions related to retinoid receptor-selective pathway” (Sanford Burnham Prebys Medical Discovery Institute, priority 2010, dated 2018).
